The source of these data is patent publication US6610677B2, “Pyrazole compounds useful as protein kinase inhibitors” (Vertex Pharmaceuticals Incorporated, priority 2000, dated 2003).

Some results are limits rather than exact numbers.

This assay deals with T1, GSK-3β (AA 1-420) (Homo sapiens, UniProt P49841).
T1 construct: GSK-3β (AA 1-420)
T1 sequence (P49841 whole entry, the tested form may be a part): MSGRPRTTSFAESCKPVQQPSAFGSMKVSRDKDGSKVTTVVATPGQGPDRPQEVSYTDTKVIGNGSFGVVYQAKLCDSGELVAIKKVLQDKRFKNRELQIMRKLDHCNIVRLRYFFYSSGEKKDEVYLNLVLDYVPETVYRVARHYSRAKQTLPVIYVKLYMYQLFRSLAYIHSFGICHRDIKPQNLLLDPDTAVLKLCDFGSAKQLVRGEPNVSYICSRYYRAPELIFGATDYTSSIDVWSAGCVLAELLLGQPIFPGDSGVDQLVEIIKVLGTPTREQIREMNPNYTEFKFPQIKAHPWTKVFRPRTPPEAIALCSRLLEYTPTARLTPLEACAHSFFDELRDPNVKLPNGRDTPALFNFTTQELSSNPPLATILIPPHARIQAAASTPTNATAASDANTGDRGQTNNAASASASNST
The experiment in a line: Ki determination for the inhibition of GSK-3 (coupled enzyme system). Particulars: 20 μM ATP, 300 μM peptide, 20 nM GSK-3β, 30° C. It counts as biochemical. As for the experimental part: Compounds were screened for their ability to inhibit GSK-3β (AA 1-420) activity using a standard coupled enzyme system (Fox et al. (1998) Protein Sci. 7, 2249). Reactions were carried out in a solution containing 100 mM HEPES (pH 7.5), 10 mM MgCl2, 25 mM NaCl, 300 μM NADH, 1 mM DTT and 1.5% DMSO. Final substrate concentrations in the assay were 20 μM ATP (Sigma Chemicals, St Louis, Mo.) and 300 μM peptide (HSSPHQS(PO3H2)EDEEE, American Peptide, Sunnyvale, Calif.). Reactions were carried out at 30° C. and 20 nM GSK-3β. Final concentrations of the components of the coupled enzyme system were 2.5 mM phosphoenolpyruvate, 300 μM NADH, 30 μg/ml pyruvate kinase and 10 μg/ml lactate dehydrogenase.
An assay stock buffer solution was prepared containing all of the reagents listed above with the exception of ATP and the test compound of interest. The assay stock buffer solution (175 μl) was incubated in a 96 well plate with 5 μl of the test compound of interest at final concentrations spanning 0.002 μM to 30 μM at 30° C. for 10 min. Typically, a 12 point titration was conducted by preparing serial dilutions (from 10 mM compound stocks) with DMSO of the test compounds in daughter plates. The reaction was initiated by the addition of 20 μl of ATP (final concentration 20 μM). Rates of reaction were obtained using a Molecular Devices Spectramax plate reader (Sunnyvale, Calif.) over 10 min at 30° C. The Ki values were determined from the rate data as a function of inhibitor concentration.
Take `CC(C)(C)c1cc(Nc2nc(-c3ccccc3C(F)(F)F)nc3ccccc23)n[nH]1` [II-49, (5-tert-Butyl-2H-pyrazol-3-yl)-[2-(2-trifluoromethyl-phenyl)-quinazolin-4-yl]-amine]: the Ki lay in the range of 100 to 1000 nM. Compound `FC(F)(F)c1ccccc1-c1nc(Nc2cc(-c3ccccc3)[nH]n2)c2ccccc2n1` [II-50, (5-Phenyl-2H-pyrazol-3-yl)-[2-(2-trifluoromethylphenyl)-quinazolin-4-yl]-amine] showed a Ki of 100 to 1000 nM.

`FC(F)(F)c1ccccc1-c1nc(Nc2n[nH]c(-c3ccccc3)c2-c2ccccc2)c2ccccc2n1` [II-51, (4,5-Diphenyl-2H-pyrazol-3-yl)-[2-(2-trifluoromethylphenyl)-quinazolin-4-yl]-amine] registered a Ki of 1000 to 20000 nM.

Regarding `NC(=O)c1c[nH]nc1Nc1nc(-c2ccccc2C(F)(F)F)nc2ccccc12` [II-52, (4-Carbamoyl-2H-pyrazol-3-yl)-[2-(2-trifluoromethylphenyl)-quinazolin-4-yl]-amine], the Ki fell in the range of 1000 to 20000 nM. As for `COCc1cc(Nc2nc(-c3ccccc3C(F)(F)F)nc3ccccc23)n[nH]1` [II-56, (5-Methoxymethyl-2H-pyrazol-3-yl)-[2-(2-trifluoromethyl-phenyl)-quinazolin-4-yl]-amine], the Ki is < 100 nM. Take `Fc1cccc2c(Nc3nc(-c4ccccc4C(F)(F)F)nc4ccccc34)n[nH]c12` [II-60, (7-Fluoro-1H-indazol-3-yl)-[2-(2-trifluoromethyl-phenyl)-quinazolin-4-yl]-amine]: the Ki was < 100 nM.

Regarding `Fc1ccc2[nH]nc(Nc3nc(-c4c(Cl)cccc4Cl)nc4ccccc34)c2c1` [II-62, [2-(2,6-Dichloro-phenyl)-quinazolin-4-yl]-(5-fluoro-1H-indazol-3-yl)-amine], the Ki was < 100 nM. With `FC(F)(F)c1ccccc1-c1nc(Nc2n[nH]c3cccc(C(F)(F)F)c23)c2ccccc2n1` [II-65, (4-Trifluoromethyl-1H-indazol-3-yl)-[2-(2-trifluoromethyl-phenyl)-guinazolin-4-yl]-amine] the figure was 1000 to 20000 nM. With `Clc1cccc(Cl)c1-c1nc(Nc2n[nH]c3ccccc23)c2ccccc2n1` [II-66, [2-(2,6-Dichloro-phenyl)-guinazolin-4-yl]-(1H-indazol-3-yl)-amine], the Ki is < 100 nM. With `FC(F)(F)c1ccccc1-c1nc(Nc2n[nH]c3c(C(F)(F)F)cccc23)c2ccccc2n1` [II-68, (7-Trifluoromethyl-1H-indazol-3-yl)-[2-(2-trifluoromethyl-phenyl)-quinazolin-4-yl]-amine] the figure was 1000 to 20000 nM; with `Fc1cc(F)c2[nH]nc(Nc3nc(-c4ccccc4C(F)(F)F)nc4ccccc34)c2c1` [II-71, (5,7-Difluoro-1H-indazol-3-yl)-[2-(2-trifluoromethyl-phenyl)-quinazolin-4-yl]-amine], < 100 nM. Next, `FC(F)(F)c1ccccc1-c1nc(Nc2n[nH]c3cccc(-n4cccc4)c23)c2ccccc2n1` [II-72, (4-Pyrrol-1-yl-1H-indazol-3-yl)-[2-(2-trifluoromethyl-phenyl)-quinazolin-4-yl]-amine]: 1000 to 20000 nM; `Fc1cccc2c(Nc3nc(-c4ccccc4Cl)nc4ccccc34)n[nH]c12` [II-74, [2-(2-Chloro-phenyl)-quinazolin-4-yl]-(7-fluoro-1H-indazol-3-yl)-amine]: < 100 nM. With `Fc1c(C(F)(F)F)ccc2c(Nc3nc(-c4ccccc4C(F)(F)F)nc4ccccc34)n[nH]c12` [II-81, (7-Fluoro-6-trifluoromethyl-1H-indazol-3-yl)-[2-(2-trifluoromethyl-phenyl)-quinazolin-4-yl]-amine] the figure was < 100 nM; with `Fc1cc(F)c2[nH]nc(Nc3nc(-c4ccc(C(F)(F)F)cc4C(F)(F)F)nc4ccccc34)c2c1` [II-83, [2-(2,4-Bis-trifluoromethyl-phenyl)-quinazolin-4-yl]-(5,7-difluoro-1H-indazol-3-yl)-amine], < 100 nM. As for `Fc1ccc(-c2nc(Nc3n[nH]c4c(F)cc(F)cc34)c3ccccc3n2)c(C(F)(F)F)c1` [II-84, (5,7-Difluoro-1H-indazol-3-yl)-[2-(4-fluoro-2-trifluoromethyl-phenyl)-quinazolin-4-yl]-amine], the Ki is < 100 nM.

As for `Fc1cc(F)c2[nH]nc(Nc3nc(-c4ccccc4Br)nc4ccccc34)c2c1` [II-85, [2-(2-Bromo-phenyl)-quinazolin-4-yl]-(5,7-difluoro-1H-indazol-3-yl)-amine], the Ki is < 100 nM. In the case of `Fc1cc(F)c2[nH]nc(Nc3nc(-c4ccc(Cl)cc4Cl)nc4ccccc34)c2c1` [II-87, [2-(2,4-Dichloro-phenyl)-quinazolin-4-yl]-(5,7-Difluoro-1H-indazol-3-yl)-amine], the Ki is < 100 nM. On to `Fc1cc(F)c2[nH]nc(Nc3nc(-c4cc(C(F)(F)F)ccc4Cl)nc4ccccc34)c2c1` [II-88, [2-(2-Chloro-5-trifluoromethyl-phenyl)-quinazolin-4-yl]-(5,7-Difluoro-1H-indazol-3-yl)-amine], for which the Ki was < 100 nM. Next, `Fc1cccc2[nH]nc(Nc3nc(-c4ccccc4C(F)(F)F)nc4ccccc34)c12` [II-89, (4-Fluoro-1H-indazol-3-yl)-[2-(2-trifluoromethyl-phenyl)-quinazolin-4-yl]-amine]: 1000 to 20000 nM; `COc1cccc2c(Nc3n[nH]c4c(F)cccc34)nc(-c3ccccc3C(F)(F)F)nc12` [II-92, (7-Fluoro-1H-indazol-3-yl)-[8-methoxy-2-(2-trifluoromethyl-phenyl)-quinazolin-4-yl]-amine]: < 100 nM. With `O=[N+]([O-])c1ccc(-c2nc(Nc3n[nH]c4c(F)cc(F)cc34)c3ccccc3n2)c(Cl)c1` [II-95, [2-(2-Chloro-4-nitro-phenyl)-quinazolin-4-yl]-(5,7-difluoro-1H-indazol-3-yl)-amine] the figure was < 100 nM; with `FC(F)(F)c1ccccc1-c1nc(Nc2n[nH]c3c2CCCC3)c2ccccc2n1` [II-97, (4,5,6,7-Tetrahydro-1H-indazol-3-yl)-[2-(2-trifluoromethyl-phenyl)-quinazolin-4-yl]-amine], 100 to 1000 nM.

Turning to `FC(F)(F)c1ccccc1-c1nc(Nc2n[nH]c3cccnc23)c2ccccc2n1` [II-98, (1H-Pyrazolo[4,3-b]pyridin-3-yl)-[2-(2-trifluoromethyl-phenyl)-quinazolin-4-yl]-amine], the Ki lay in the range of 1000 to 20000 nM. In turn, `Cc1cc(C)c2c(Nc3nc(-c4ccccc4C(F)(F)F)nc4ccccc34)n[nH]c2n1` [II-100] returned a Ki of 1000 to 20000 nM. `O=c1cc2[nH]nc(Nc3nc(-c4ccccc4C(F)(F)F)nc4ccccc34)c2nn1-c1ccccc1` [II-101, (6-Oxo-5-phenyl-5,6-dihydro-1H-pyrazolo[4,3-c]pyridazin-3-yl)-[2-(2-trifluoromethyl-phenyl)-quinazolin-4-yl]-amine] returned a Ki of 100 to 1000 nM. Next, `FC(F)(F)c1ccccc1-c1nc(Nc2n[nH]c3ccccc23)c2cccnc2n1` [II-108, (1H-Indazol-3-yl)-[2-(2-trifluoromethyl-phenyl)-pyrido[2,3-d]pyrimidin-4-yl]-amine]: < 100 nM; `Fc1cc(F)c2[nH]nc(Nc3nc(-c4ccccc4C(F)(F)F)nc4ncccc34)c2c1` [II-109, (5,7-Difluoro-1H-indazol-3-yl)-[2-(2-trifluoromethyl-phenyl)-pyrido[2,3-d]pyrimidin-4-yl]-amine]: < 100 nM; `Clc1ccccc1-c1nc(Nc2n[nH]c3ccccc23)c2cccnc2n1` [II-110, [2-(2-Chloro-phenyl)-pyrido[2,3-d]pyrimidin-4-yl]-(1H-indazol-3-yl)-amine]: < 100 nM. As to `Fc1ccc2[nH]nc(Nc3nc(-c4ccccc4C(F)(F)F)nc4c3CCCCCC4)c2c1` [II-111, (5-Fluoro-1H-indazol-3-yl)-[2-(2-trifluoromethyl-phenyl)-5,6,7,8,9,10-hexahydro-cyclooctapyrimidin-4-yl]-amine], the Ki was < 100 nM.

As for `Fc1ccc2[nH]nc(Nc3nc(-c4ccccc4Cl)nc4c3CCC4)c2c1` [II-112, [2-(2-Chloro-phenyl)-6,7-dihydro-5H-cyclopentapyrimidin-4-yl]-(5-fluoro-1H-indazol-3-yl)-amine], the Ki is < 100 nM. Next, `FC(F)(F)c1ccccc1-c1nc2c(c(Nc3n[nH]c4ccccc34)n1)CCC2` [II-113, (1H-Indazol-3-yl)-[2-(2-trifluoromethyl-phenyl)-6,7-dihydro-5H-cyclopentapyrimidin-4-yl]-amine]: < 100 nM. For `Fc1cccc2c(Nc3nc(-c4ccccc4C(F)(F)F)nc4c3CCC4)n[nH]c12` [II-114, (7-Fluoro-1H-indazol-3-yl)-[2-(2-trifluoromethyl-phenyl)-6,7-dihydro-5H-cyclopentapyrimidin-4-yl]-amine], the Ki is < 100 nM.

Consider `Fc1cc(F)c2[nH]nc(Nc3nc(-c4ccccc4C(F)(F)F)nc4c3CCC4)c2c1` [II-115, (5,7-Difluoro-1H-indazol-3-yl)-[2-(2-trifluoromethyl-phenyl)-6,7-dihydro-5H-cyclopentapyrimidin-4-yl]-amine], for which the Ki is < 100 nM.

One may read the Ki as the dissociation constant of the complex between target and ligand, obtained from inhibition or displacement. A higher Ki goes with lower affinity.
